Measured values published in patent publication US6492328B2, “Novispirins: antimicrobial peptides” (priority 2000, dated 2002).
Where two headings read alike, the source gives them in different places. Where no end group is shown, it is not given here.

Experiments:
S. maltophilia 18CP = experiment: Novispirins vs S. maltophilia (Table 5); assay type: cell-based, Stenotrophomonas maltophilia; set-up: unit not given here; conditions: strain 18CP
Method: (§1) Microorganisms used in this study included 13 different Pseudomonas aeruginosa strains. The AML-654 and LZ-1 strains are recent clinical isolates from the UCLA Clinical Microbiology laboratory. Nine strains (5 mucoid, 4 nonmucoid) were recent CF isolates provided by Dr. Lisa Saiman. All of the P. aeruginosa strains except PAO-1 strain were resistant to multiple conventional antibiotics, and all 9 CF isolates were resistant to 250 μg/ml of tobramycin. We have also tested 5 strains each of Stenotrophomonas maltophilia and Burkholderia cepacia from CF patients (also provided by Dr. Lisa Saiman), two strains of Escherichia coli (ML-35p and DH-5a), and single strains of Staphylococcus aureus[MRSA (methicillin-resistant S. aureus)] and C. albicans.

S. maltophilia 36CN = experiment: Novispirins vs S. maltophilia (Table 5); assay type: cell-based, Stenotrophomonas maltophilia; set-up: unit not given here; conditions: strain 36CN
Method: as §1

S. maltophilia 42CK = experiment: Novispirins vs S. maltophilia (Table 5); assay type: cell-based, Stenotrophomonas maltophilia; set-up: unit not given here; conditions: strain 42CK
Method: as §1

S. maltophilia 47CG = experiment: Novispirins vs S. maltophilia (Table 5); assay type: cell-based, Stenotrophomonas maltophilia; set-up: unit not given here; conditions: strain 47CG
Method: as §1

S. maltophilia 51Cl = experiment: Novispirins vs S. maltophilia (Table 5); assay type: cell-based, Stenotrophomonas maltophilia; set-up: unit not given here; conditions: strain 51Cl
Method: as §1

E. coli = experiment: Two stage radial diffusion assay with 10 mM HEPES, G10 variants (Table 8); assay type: cell-based; conditions: mean ± SEM, n = 3, in µg/mL
From the text: (§2) Amidation (—NH2) of the carboxy terminus in some of the novispirin G10 variants was designed to increase overall positive charge. The sequences of these peptides and their net charge is shown below in Table 7. The fractional (and pH dependent) charge on histidine12 was ignored in this calculation.
(§3) In Table 8, MIC signifies minimal inhibitory concentration, as determined by two stage radial diffusion assays. […] Shaded boxes show results that represent a significant improvement of activity (p<0.01 by t-test), relative to novispirin G10. […] None of the above G10 novispirin derivatives caused any hemolysis of human red blood cells, even when tested at 80 μg/ml. It is likely that other cationic amino acids (e.g., lysine, ornithine, etc) could also be used in position 12 to achieve better activity in the presence of calcium and magnesium ions.

K. pneumoniae = experiment: as above; assay type: cell-based; conditions: mean ± SEM, n = 3, in µg/mL
From the text: as §2, §3

P. aeruginosa = experiment: as above; assay type: cell-based; conditions: mean ± SEM, n = 3, in µg/mL
From the text: as §2, §3

S. aureus = experiment: as above; assay type: cell-based; conditions: +1 mM Ca; mean ± SEM, n = 3; in µg/mL
From the text: as §2, §3

E. coli ML 35P = assay type: cell-based, Escherichia coli; conditions: mean ± SEM, n = 3
Method: Antimicrobial activity. Several different methods were used to examine the antimicrobial properties of novispirins, including: a) two-stage radial diffusion assays; b) colony counting assays; and c) standard microbroth dilution assays.
Antimicrobial activity was tested in media with low, normal or high salinity. In radial diffusion assays, this was accomplished by using a low salt “basic medium” containing 0.3 mg of trypticase soy broth powder/ml of 10 mM sodium phosphate buffer, pH 7.4. Media with “normal” or “high” salinity were prepared by supplementing the basic medium with 100 mM NaCl to obtain media with normal salinity, or with 175-200 mM NaCl to obtain high salt media. Retention of activity against P. aeruginosa in high salt media is important because airway fluids from cystic fibrosis patients are reported to show hypersalinity, and other sites—including skin surfaces surfaces and the urinary bladder—may have locally high salt concentrations.
The relative activities of ovispirin and the novispirins against two organisms, E. coli and a multi-resistant strain of P. aeruginosa, are shown in FIG. 1. The MICs were obtained by radial diffusion assays performed under low, normal, and high salt conditions (which are denoted along the X-axis as 0, 100 and 200 mM NaCl, respectively).
Table 1 compares the activity of novispirins against these Gram-negative bacteria with its activity against Listeria monocytogenes, Staphylococcus aureus and C. albicans. […] Note that novispirins show activity against these Gram-positive bacteria when tested in physiological (100 mM NaCl) salt concentrations, and also that Novispirin G10 is quite active against C. albicans. Although neither ovispirin nor novispirins retained activity against C. albicans or the Gram positives under very high salt conditions (200 mM NaCl), they remained active against the Gram-negatives under these conditions. Consequently, even if the airways' NaCl concentrations are exceptionally high in CF patients, this factor will not impair the ability of ovispirin or novispirins to kill P. aeruginosa.

[1] = Very high salinity (+200 mM NaCl)

| Molecule | activity vs S. maltophilia (S. maltophilia 18CP; +100 mM NaCl) | activity vs S. maltophilia (S. maltophilia 18CP; +175 mM NaCl) | activity vs S. maltophilia (S. maltophilia 18CP; LOW SALT CONDITIONS) | activity vs S. maltophilia (S. maltophilia 36CN; +100 mM NaCl) | activity vs S. maltophilia (S. maltophilia 36CN; +175 mM NaCl) | activity vs S. maltophilia (S. maltophilia 36CN; LOW SALT CONDITIONS) | activity vs S. maltophilia (S. maltophilia 42CK; +100 mM NaCl) | activity vs S. maltophilia (S. maltophilia 42CK; +175 mM NaCl) | activity vs S. maltophilia (S. maltophilia 42CK; LOW SALT CONDITIONS) | activity vs S. maltophilia (S. maltophilia 47CG; +100 mM NaCl) | activity vs S. maltophilia (S. maltophilia 47CG; +175 mM NaCl) | activity vs S. maltophilia (S. maltophilia 47CG; LOW SALT CONDITIONS) | activity vs S. maltophilia (S. maltophilia 51Cl; +100 mM NaCl) | activity vs S. maltophilia (S. maltophilia 51Cl; +175 mM NaCl) | activity vs S. maltophilia (S. maltophilia 51Cl; LOW SALT CONDITIONS) | MIC (E. coli ML 35P; Low Salt (+0 mM NaCl)) | MIC (E. coli ML 35P; Normal salinity (+100 mM NaCl)) | MIC (E. coli ML 35P; [1]) | also measured |
| --- | --- | --- | --- | --- | --- | --- | --- | --- | --- | --- | --- | --- | --- | --- | --- | --- | --- | --- | --- |
| CC(C)C[C@H](NC(=O)[C@H](CCCNC(=N)N)NC(=O)CNC(=O)CNC(=O)[C@@H](N)CCCNC(=N)N)C(=O)N[C@H]1CSSC[C@@H](C(=O)N[C@H](C(=O)NCC(=O)N[C@@H](CCCNC(=N)N)C(N)=O)C(C)C)NC(=O)[C@H](C(C)C)NC(=O)[C@@H]2CSSC[C@H](NC(=O)[C@H](Cc3ccc(O)cc3)NC1=O)C(=O)N[C@@H](CCCNC(=N)N)C(=O)N[C@@H](CCCNC(=N)N)C(=O)N[C@@H](CCCNC(=N)N)C(=O)N[C@@H](Cc1ccccc1)C(=O)N2 [Protegrin PG-1, reference compound] | 0.58 | 0.70 | 0.52 | 0.46 | 0.57 | 0.27 | 0.50 | 0.79 | 0.32 | 0.53 | 0.74 | 0.09 | 0.92 | 1.08 | 0.42 | – | – | – | – |
| GLLRRLRKKIGEIFKKYG [PGG, reference compound] | 1.63 | 2.34 | 0.86 | 1.05 | 1.11 | 1.10 | 2.67 | 7.10 | 1.51 | 1.08 | 1.64 | 0.73 | 2.20 | 2.85 | 1.31 | – | – | – | – |
| K N L R R I I R K G I H I I K K Y G-CONH2 (KNLRRIIRKGIHIIKKYG-NH2) [Novispirin G10 amide] | – | – | – | – | – | – | – | – | – | – | – | – | – | – | – | – | – | – | MIC (E. coli; +1 mM Ca): 7.26 ± 0.02; MIC (E. coli; +1 mM Mg): 17.2 ± 3.9; MIC (E. coli; No Ca/Mg): 0.06 ± 0.00; MIC (K. pneumoniae; +1 mM Ca): 83.5 ± 6.4; MIC (K. pneumoniae; +1 mM Mg): >250; MIC (K. pneumoniae; No Ca/Mg): 0.12 ± 0.01; MIC (P. aeruginosa; +1 mM Ca): 83.5 ± 6.4; MIC (P. aeruginosa; +1 mM Mg): >250; MIC (P. aeruginosa; No Ca/Mg): 0.12 ± 0.01; MIC (S. aureus): >79 |
| KNLRRIGRKIIHIIKKYG [G7 Novispirin, K N L R R I G R K I I H I I K K Y G] | 0.38 | 0.70 | 0.61 | 0.31 | 0.29 | 0.17 | 0.92 | 2.85 | 0.42 | 0.39 | 0.29 | 0.25 | 0.89 | 1.94 | 0.54 | 0.2 ± 0.0 µg/mL | 0.2 ± 0.0 µg/mL | 1.5 ± 0.4 µg/mL | – |
| KNLRRITRKIIHIIKKYG [T7 Novispirin, K N L R R I T R K I I H I I K K Y G] | 0.58 | 0.62 | 0.74 | 0.32 | 0.52 | 0.21 | 0.73 | 1.92 | 0.56 | 0.47 | 0.48 | 0.18 | 1.75 | 2.74 | 0.88 | 0.3 ± 0.1 µg/mL | 0.2 ± 0.1 µg/mL | 1.4 ± 0.5 µg/mL | – |
| Polymyxin B [reference compound] | 0.04 | 0.002 | 0.04 | 0.02 | 0.02 | 0.06 | 0.02 | 0.01 | 0.05 | 0.08 | 0.05 | 0.16 | 0.04 | 0.05 | 0.02 | – | – | – | – |
